In brackets after ≈: the same amount, converted by molar mass.
How the values were obtained:
[1] = Inhibition of T3SS-mediated LcrQ secretion in Yersinia pseudotuberculosis assessed as yopE promoter-luciferase gene expression by luciferase reporter gene assay
[2] = Inhibition of T3SS-mediated ExoU secretion in Pseudomonas aeruginosa PA103
[3] = Inhibition of T3SS-mediated SipB secretion in Salmonella typhimurium; set-up: species or system Salmonella enterica subsp. enterica serovar Typhimurium
[4] = Inhibition of T3SS-mediated carboxypeptidase G2-SopE2-HA secretion in Salmonella typhimurium by fluorescence analysis; set-up: species or system Salmonella enterica subsp. enterica serovar Typhimurium
[5] = Inhibition of Escherichia coli T3SS-mediated hemolysis of sheep erythrocytes by microplate reader analysis
[6] = Inhibition of T3SS-mediated YopE secretion in Yersinia pestis KIM19 by ELISA
[7] = Inhibition of Escherichia coli T3SS-mediated hemolysis of erythrocytes
[8] = Inhibition of phospholipase A2 activity of Pseudomonas aeruginosa N-terminal His6-tagged ExoU expressed in Escherichia coli BL21 cells using arachidonic TEPC as substrate by Ellman's method

For `O=C(N/N=C/c1cc(Cl)cc(Cl)c1O)c1ccccc1`, the IC50 [1] was 25 µM.
Compound `O=C(O)C(Cc1ccc(Cl)cc1)Nc1nc(-c2ccc(-c3ccccc3)cc2)nc(N2CCN(c3ccccn3)CC2)n1` (configuration not stated) has an IC50 [2] of over 100 µM and an IC50 [3] of 20 µM.
In the case of `O=C(N/N=C/c1cc(Br)cc(Br)c1O)c1cccnc1`, the IC50 [1] is reported as 25 µM.
For `O=C(N/N=C/c1cc(Br)cc(Br)c1O)c1ccc([N+](=O)[O-])cc1`, the IC50 [4] was 5.5 µM and the IC50 [1] was 15 µM.
Compound `O=C(N/N=C/c1ccc(O)cc1O)c1ccc([N+](=O)[O-])cc1` has an IC50 [1] of 25 µM.
In the case of `CC(C)[C@H](NC(=O)[C@H](C)NC(=O)[C@@H](N)[C@@H](N)CC[C@@H](O)[C@@H](O)C(O)[C@@H]1CN(C(N)=O)C(=N)N1)C(=O)O` (some centres not stated), the IC50 [5] is reported as 0.02 µM.
With `O=C(Cc1csc(NC(=O)c2ccccc2)n1)Nn1cnc2scc(-c3ccco3)c2c1=O` the IC50 [6] was 20 µM.
For `C/C=C\C=C\[C@@H]1O[C@](O)([C@H](CC)C(=O)NC/C=C/C=C(\C)[C@@H](OC)[C@@H](C)[C@@H]2O[C@H](/C=C/C=C/C=C(\C)C(=O)c3c(O)ccn(C)c3=O)[C@H](O)[C@@H]2O)[C@H](O)[C@H](O)C1(C)C`, the IC50 [7] was 1.5 µg/mL (≈ 1.85 µM).
In the case of `NC(=O)c1cccc2c1-c1ccccc1C2`, the IC50 [8] is reported as 7 µM.
Compound `CC(=O)Nc1ccc(N2C(=O)c3ccc(C(=O)OC(C)C(=O)c4c[nH]c5ccccc45)cc3C2=O)cc1` (configuration not stated) has an IC50 [6] of 20 µM.
